For 81 molecules, GFP fluorescence (kMESF) results are on record in PubChem BioAssay AID2743 (NMMLSC, 2010).

A short description of this test: potency of AGP1-GFP expression modulators in yeast, dose response, cell-based, flow cytometry, S. cerevisiae, MLPCN hits (AID 2743). As to conditions: S. cerevisiae AGP1-GFP strain, flow cytometry GFP, 3 h; at 33 µM (top of the series). On the technique in general: Flow cytometry measures light scatter and fluorescence of single cells or particles in a stream.

Several values for one entry are separate records, joined by “and”; a condition that tells them apart may be missing. Identical values can stand only once. Activity calls are given as the source filed them.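 How the source made its calls: active means fitted half-maximal concentration for change in GFP expression of 33 µM or less; inactive means the rest.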

As for `COc1ccccc1-c1nc2s/c(=C\c3cccs3)c(=O)n2n1`, the GFP fluorescence (kMESF) is 27.7 kMESF (inactive). Next, `O=[N+]([O-])c1c(Nc2ccccn2)cc(Cl)c2nonc12`: 26.8 kMESF (inactive); `COc1ccc(NC2=C(Cl)C(=O)N(CCc3ccccc3)C2=O)c(OC)c1`: 35.3 kMESF (inactive). In the case of `O=C(CCc1ccccc1)NNC(=S)NC(=O)c1ccccc1`, the GFP fluorescence (kMESF) was 50.8 kMESF (inactive). Next, `COc1ccc(C(=O)NC(=S)NNC(=O)CCc2ccccc2)cc1`: 37.5 kMESF (inactive). In the case of `O=C(Oc1oc(-c2ccco2)nc1C=Nc1ccc(Cl)cc1)c1ccco1` it was 42 kMESF (inactive); in that of `O=C1Oc2ccccc2C(=O)/C1=C/c1ccccc1O`, 39.4 kMESF (inactive); in that of `Nc1ccc(Br)c2c1C(=O)c1ccccc1C2=O`, 27.1 kMESF (inactive). `O=C(Nc1ccc(Cl)cc1)ON=C1CCCC1`: the GFP fluorescence (kMESF) is 28 kMESF (inactive).

On to `COc1ccc(/C=C2/C(=O)ON=C2c2ccccc2)cc1OC`, for which the GFP fluorescence (kMESF) is 27.1 kMESF (inactive). In the case of `CCN(CC(=O)Nc1cc(S(=O)(=O)N2CCOCC2)ccc1Cl)Cc1ccccc1`, the GFP fluorescence (kMESF) is 37.6 kMESF (inactive). Turning to `O=C(C#Cc1ccccc1)c1cccc([N+](=O)[O-])c1`, the GFP fluorescence (kMESF) was 52 kMESF (inactive).

Turning to `CC[C@@]1(c2ccccc2OC)ON(c2ccccc2C(F)(F)F)C1=O`, the GFP fluorescence (kMESF) is 33.2 kMESF (inactive). As to `COc1cc(C=C2C(=O)c3ccccc3C2=O)cc(OC)c1OC`, the GFP fluorescence (kMESF) was 38.9 kMESF (inactive). In the case of `CCC(=O)Oc1oc(-c2ccccc2)nc1C=Nc1ccccc1OC` it was 42.9 kMESF (inactive); in that of `Cc1sc(/C=C2\C(=O)ON=C2c2ccccc2)cc1Br`, 34 kMESF (inactive); in that of `Cc1cc(S(=O)(=O)ON2C(=O)c3ccccc3C2=O)ccc1F`, 43.2 kMESF (inactive). On to `CCCCc1ccc(/C=C2/C(=O)ON=C2c2ccccc2)s1`, for which the GFP fluorescence (kMESF) is 38.4 kMESF (inactive). On to `Oc1ccc(N=Nc2ccccc2)o1`, for which the GFP fluorescence (kMESF) is 49 kMESF (inactive). In the case of `O=C1C(Cl)=C(NCCc2ccccc2)C(=O)N1CCc1ccccc1`, the GFP fluorescence (kMESF) is 43.3 kMESF (inactive). `Cc1cc(=O)n2c3c(sc2n1)C(=O)N(Cc1ccccc1)C3=O`: the GFP fluorescence (kMESF) is 44.3 kMESF (inactive).

Turning to `COc1ccc(N/N=C(\C#N)C(N)=O)cc1`, the GFP fluorescence (kMESF) was 52.4 kMESF (inactive).

For `O=S(=O)(/N=C(\Sc1ccc(Cl)cc1)c1ccccc1)c1ccccc1`, the GFP fluorescence (kMESF) is 36.1 kMESF (inactive). Take `CCCc1cc(NCc2ccccn2)n2nc(C)c(-c3ccccc3)c2n1`: the GFP fluorescence (kMESF) is 40.4 kMESF (inactive). As to `Cc1ccc(/C=C2\C(=O)NC(=S)N(c3ccc(F)cc3)C2=O)s1`, the GFP fluorescence (kMESF) is 31.9 kMESF (inactive). Turning to `CCC1(c2ccccc2)ON(c2c(Br)cccc2Br)C1=O` (stereo unspecified), the GFP fluorescence (kMESF) was 28.9 kMESF (inactive). Turning to `N#Cc1ccc(N=c2ssnc2Cl)cc1`, the GFP fluorescence (kMESF) was 33.2 kMESF (inactive).

`Cc1ccccc1N1C(=O)C(Cl)=C(N2CCN(c3ccccc3)CC2)C1=O`: the GFP fluorescence (kMESF) was 41.1 kMESF (inactive).

Consider `O=[N+]([O-])c1cc(Cl)cc(/C=N\Nc2ccccn2)c1O`, for which the GFP fluorescence (kMESF) is 30.3 kMESF (inactive).

As for `COC(=O)CCCC1=CC2=CC(=O)C(C)(OC(=O)CCc3ccccc3)C(=O)C2=CO1` (stereo unspecified), the GFP fluorescence (kMESF) was 29.2 kMESF (inactive). As to `COc1cc(/C=C2/C(=O)ON=C2c2ccccc2)ccc1O`, the GFP fluorescence (kMESF) was 25 kMESF (inactive). For `CCOc1ccc(C(C)=O)cc1N1C(=O)C2C3C=CC(O3)C2C1=O` (stereo unspecified), the GFP fluorescence (kMESF) is 40.5 kMESF (inactive). As for `O=C(Sc1cccc2cccnc12)c1ccccc1Br`, the GFP fluorescence (kMESF) was 37.3 kMESF (inactive). As for `CC(=O)N(\C=C/C=C/C=C1\Sc2ccccc2C1=O)c1ccccc1`, the GFP fluorescence (kMESF) is 38.7 kMESF (inactive). On to `C=CCn1c(C)c(/C=C/c2cc[n+](C)cc2)c2ccccc21`, for which the GFP fluorescence (kMESF) is 42.5 kMESF (inactive). With `Cc1cccc(NC(c2ccc(C)s2)c2ccc3ccc(C)nc3c2O)n1` (stereo unspecified), the GFP fluorescence (kMESF) is 32.5 kMESF (inactive). Take `CC1=C(C)/C(=N\OS(=O)(=O)c2ccccc2)C=CC1=O`: the GFP fluorescence (kMESF) was 41.6 kMESF (inactive).

Consider `COc1ccc(NC(=O)/C(Cl)=C(/Cl)S(=O)Cc2ccccc2)cn1` (stereo unspecified), for which the GFP fluorescence (kMESF) was 38.3 kMESF (inactive). Next, `O=C1c2cccc3c([N+](=O)[O-])ccc(c23)C(=O)N1CCc1ccccn1`: 44.1 kMESF (inactive).

Consider `CCOc1ccc(N2C(=O)C(Cl)=C(Nc3ccccc3O)C2=O)cc1`, for which the GFP fluorescence (kMESF) was 43.1 kMESF (inactive). For the molecule `CC1=NOC(=O)/C1=C\c1ccc(-c2cc(Cl)ccc2Cl)o1`, the GFP fluorescence (kMESF) is 42.3 kMESF (inactive). With `O=C(NC(=S)NNC(=O)[C@H]1C[C@@H]1c1ccccc1)c1cccc(F)c1`, the GFP fluorescence (kMESF) was 30.4 kMESF (inactive). In the case of `O=C(c1ccc(C(=O)N2CCCc3ccccc32)s1)N1CCCc2ccccc21`, the GFP fluorescence (kMESF) was 38.6 kMESF (inactive).

In the case of `COc1ccccc1N1C(=O)c2cccc3c(C(=O)O)ccc(c23)C1=O`, the GFP fluorescence (kMESF) was 49 kMESF (inactive).

`COc1cccc(/C=N/Nc2ncc(C(F)(F)F)cc2Cl)c1O`: the GFP fluorescence (kMESF) was 34.3 kMESF (inactive). Next, `Clc1ccc(N=c2ssnc2Cl)cc1`: 39.8 kMESF (inactive); `CCCOc1ccc(C(=O)NNC(=S)NC(=O)c2ccco2)cc1`: 50.3 kMESF (inactive); `O=C(OCC(=O)N1CCN(C(=O)c2ccco2)CC1)c1cc(-c2ccc(F)cc2)nc2ccccc12`: 49.9 kMESF (inactive) and 40 kMESF (inactive). With `CN(O)/C=c1/ccc2c(n1)C(=O)C=CC=2`, the GFP fluorescence (kMESF) is 39.5 kMESF (inactive). With `COc1cccc2sc(Nc3nc(-c4ccccn4)cs3)nc12`, the GFP fluorescence (kMESF) is 34.7 kMESF (inactive). As for `Cc1c(NC2=C(Cl)C(=O)N(c3ccccc3Cl)C2=O)c(=O)n(-c2ccccc2)n1C`, the GFP fluorescence (kMESF) was 38.1 kMESF (inactive). In the case of `COc1ccc2c(c1)S/C(=C\C(=O)c1ccncc1)N2C` it was 17.8 kMESF (inactive); in that of `COc1ccccc1C(=O)NNC(=S)NC(=O)c1ccco1`, 38.7 kMESF (inactive). Regarding `CCOc1ccc(N/N=C(/C#N)C(N)=O)cc1`, the GFP fluorescence (kMESF) was 54.7 kMESF (inactive). As for `O=C1ON=C(c2ccc(Cl)cc2)/C1=C/c1ccc(O)cc1`, the GFP fluorescence (kMESF) was 23.3 kMESF (inactive). Take `Cc1ccc(S(=O)(=O)c2ncccc2[N+](=O)[O-])cc1`: the GFP fluorescence (kMESF) is 47.1 kMESF (inactive). For `CC(=O)Oc1cccc(N2C(=O)c3cccc4c([N+](=O)[O-])ccc(c34)C2=O)c1`, the GFP fluorescence (kMESF) was 31.2 kMESF (inactive). As to `O=[N+]([O-])c1ccc(N=Nc2c(Cl)cc(O)cc2Cl)cc1`, the GFP fluorescence (kMESF) is 41.8 kMESF (inactive).

Take `N/C(Cc1ccc(Cl)cc1)=N\OC(=O)c1ccccc1`: the GFP fluorescence (kMESF) is 23.8 kMESF (inactive).

On to `Cc1ccc(/C=C2\SC(=S)N(Cc3ccccc3)C2=O)o1`, for which the GFP fluorescence (kMESF) was 38.4 kMESF (inactive). For `O=C(Oc1c(Cl)cc(Cl)c2cccnc12)c1cccc([N+](=O)[O-])c1`, the GFP fluorescence (kMESF) is 34.3 kMESF (inactive). In the case of `Cc1cccc(OCCN2CSC(=S)N(C)C2)c1` it was 46.6 kMESF (inactive); in that of `O=C(NC(=S)NNC(=O)c1ccc(Cl)cc1Cl)c1cccnc1`, 26.1 kMESF (inactive).

Regarding `CCOC(=O)COc1ccc2ccccc2c1/C=C/[N+](=O)[O-]`, the GFP fluorescence (kMESF) was 29.3 kMESF (inactive).

Turning to `CC(C)(C)n1nc(-c2ccc(Cl)cc2)c2c(N)ncnc21`, the GFP fluorescence (kMESF) was 39.9 kMESF (inactive).

`COc1ccc(NC2=C(Cl)C(=O)N(CCc3ccccc3)C2=O)cc1`: the GFP fluorescence (kMESF) was 43.7 kMESF (inactive). On to `CCc1sc(C(=O)Nc2nc(-c3ccccn3)cs2)cc1C`, for which the GFP fluorescence (kMESF) was 27.9 kMESF (inactive). On to `O=C(Nc1nc2ccc(F)cc2s1)c1ccccn1`, for which the GFP fluorescence (kMESF) is 41.4 kMESF (inactive).

`O=C(NNC(=S)NC(=O)c1ccco1)c1ccc(F)cc1`: the GFP fluorescence (kMESF) is 43.7 kMESF (inactive). Consider `COc1ccccc1[C@@]1(C)ON(c2ccccc2C(F)(F)F)C1=O`, for which the GFP fluorescence (kMESF) was 30.9 kMESF (inactive). For the molecule `C[C@H]1C[C@@H](C)C(=O)[C@@H]([C@H](O)CC2CC(=O)NC(=O)C2)C1`, the GFP fluorescence (kMESF) was 25.3 kMESF (inactive). On to `Cc1ccc2[nH]cc(/C=C/c3cc[n+](C)cc3)c2c1`, for which the GFP fluorescence (kMESF) is 48.3 kMESF (inactive). For the molecule `CC(=O)OC[C@]12CC[C@H]3[C@@](C)(CC[C@H]4C(C)(C)CCC[C@]34C)[C@@H]1C[C@H](C1=CC(=O)O[C@@H]1OC(C)=O)O2`, the GFP fluorescence (kMESF) was 31 kMESF (inactive). For the molecule `CC(=O)Oc1ccc(N2C(=O)C3C4C=CC(O4)C3C2=O)cc1` (stereo unspecified), the GFP fluorescence (kMESF) is 45.2 kMESF (inactive).

For the molecule `COc1ccc(NC(=O)/C(C#N)=C/c2ncc([N+](=O)[O-])n2C)c(OC)c1`, the GFP fluorescence (kMESF) was 45.2 kMESF (inactive).

For the molecule `COc1ccc([N+](=O)[O-])c(S(=O)(=O)c2ccc(Cl)cc2)n1`, the GFP fluorescence (kMESF) is 37.1 kMESF (inactive). `O=C1Nc2ccccc2/C1=C\C(=O)c1ccccc1`: the GFP fluorescence (kMESF) is 38.3 kMESF (inactive). Take `Cc1ccc(S(=O)(=O)Cc2cc(F)c([N+](=O)[O-])cc2[N+](=O)[O-])cc1`: the GFP fluorescence (kMESF) is 37 kMESF (inactive).

With `COc1cccc(/C=C2\C(=O)N(c3cccc(C)c3)C(=O)c3ccccc32)c1`, the GFP fluorescence (kMESF) is 45.3 kMESF (inactive). On to `O=c1oc(/C=C/c2ccc([N+](=O)[O-])s2)nc2ccccc12`, for which the GFP fluorescence (kMESF) is 37.9 kMESF (inactive). As for `CC(C)(C)n1nc(-c2ccc(F)cc2)c2c(N)ncnc21`, the GFP fluorescence (kMESF) is 40.2 kMESF (inactive).
